Laboratory results as given in US20230119539A1, “TRACELESS LINKERS AND PROTEIN-CONJUGATES THEREOF” (Regeneron Pharmaceuticals, Inc., priority 2019, published 2023).

Tests used:
[1] = pH stability of quenched linker-payloads in buffers (LCMS); assay type: physicochemical; conditions: for percentage of the remaining compound: RT
Procedure: To a solution of compound (payloads or quenched-linker-payloads) in DMSO (0.2-1.0 mg/mL) was added corresponding PBS buffer (V(buffer)/V(DMSO)=5) to give test samples (pH 3, 4, 5, 6, 7.4, and 8.5, or other special pH). The test samples were incubated at RT for at least 3 days and monitored by LCMS (i.e., at 1 hr, 2 hr, 4 hr, 8 hr, and 1 day, 2 day, 3 day, 4 day, 5 day, 6 day, 7 day, 8 day, 9 day, and 21 day time points). Initial concentrations of the samples were 0.2 mg/mL (DMSO/buffer, v/v=1/5). […] The payloads and quenched linker-payloads were mostly stable at pH >5.0, 6.0, 7.4 and 8.5 after 3 days. In more acidic conditions, such as pH 1.0, the payloads or linker-payloads were easily cleaved to release D*-OH.

[2] = Solubility of linker-payloads and quenched linker-payloads; assay type: physicochemical; conditions: quenched linker-payloads, Table 6a
Excerpt: The quenched linker-payloads were water soluble and used for the pH stability test.

[3] = Solubility of quenched linker-payloads; conditions: Table 3c, linker-payloads quenched with taurine-PEG4-azide or CD-N3

## CCCC1O[C@@H]2C[C@H]3[C@@H]4CCC5=CC(=O)C=C[C@]5(C)[C@H]4[C@@H](O)C[C@]3(C)[C@]2(C(=O)COCN(C)C(=O)CNC(=O)OCc2ccc(NC(=O)[C@H](CCCNC(N)=O)NC(=O)[C@@H](NC(=O)CCOCCOCCOCCOCCNC(=O)CCC(=O)N3Cc4ccccc4-c4c(nnn4CCOCCOCCOCCOCCC(=O)NCCS(=O)(=O)O)-c4ccccc43)C(C)C)cc2)O1 (stereo partly drawn) [Q1L1-PII-8]
[1]; DMSO, 1 Day
  percentage of the remaining compound: 100%
[1]; DMSO, 2 Day
  percentage of the remaining compound: 100%
[1]; DMSO, 3 Day
  percentage of the remaining compound: 100%
[1]; DMSO, 4 Day
  percentage of the remaining compound: 100%
[1]; DMSO, 7 Day
  percentage of the remaining compound: 100%
[1]; DMSO, 1 hr
  percentage of the remaining compound: 100%
[1]; DMSO, 4 hr
  percentage of the remaining compound: 100%
[1]; pH 3.0, 1 Day
  percentage of the remaining compound: 93%
[1]; pH 3.0, 2 Day
  percentage of the remaining compound: 89%
[1]; pH 3.0, 3 Day
  percentage of the remaining compound: 84%
[1]; pH 3.0, 4 Day
  percentage of the remaining compound: 79%
[1]; pH 3.0, 7 Day
  percentage of the remaining compound: 65%
[1]; pH 3.0, 1 hr
  percentage of the remaining compound: 100%
[1]; pH 3.0, 4 hr
  percentage of the remaining compound: 100%
[1]; pH 4.0, 1 Day
  percentage of the remaining compound: 100%
[1]; pH 4.0, 2 Day
  percentage of the remaining compound: 99%
[1]; pH 4.0, 3 Day
  percentage of the remaining compound: 99%
[1]; pH 4.0, 4 Day
  percentage of the remaining compound: 98%
[1]; pH 4.0, 7 Day
  percentage of the remaining compound: 96%
[1]; pH 4.0, 1 hr
  percentage of the remaining compound: 100%
[1]; pH 4.0, 4 hr
  percentage of the remaining compound: 100%
[1]; pH 4.0, day 1
  LP: percentage of linker-payloads remaining: 100%
  P: percentage of budesonide released from the linker-payloads: 0%
[1]; pH 4.0, day 2
  LP: percentage of linker-payloads remaining: 99%
  P: percentage of budesonide released from the linker-payloads: 0%
[1]; pH 4.0, day 7
  LP: percentage of linker-payloads remaining: 96%
  P: percentage of budesonide released from the linker-payloads: 3%
[1]; pH 5.0, 1 Day
  percentage of the remaining compound: 100%
[1]; pH 5.0, 2 Day
  percentage of the remaining compound: 100%
[1]; pH 5.0, 3 Day
  percentage of the remaining compound: 100%
[1]; pH 5.0, 4 Day
  percentage of the remaining compound: 100%
[1]; pH 5.0, 7 Day
  percentage of the remaining compound: 100%
[1]; pH 5.0, 1 hr
  percentage of the remaining compound: 100%
[1]; pH 5.0, 4 hr
  percentage of the remaining compound: 100%
[1]; pH 5.0, day 1
  LP: percentage of linker-payloads remaining: 100%
  P: percentage of budesonide released from the linker-payloads: 0%
[1]; pH 5.0, day 2
  LP: percentage of linker-payloads remaining: 100%
  P: percentage of budesonide released from the linker-payloads: 0%
[1]; pH 5.0, day 7
  LP: percentage of linker-payloads remaining: 100%
  P: percentage of budesonide released from the linker-payloads: 0%
[1]; pH 7.4, 1 Day
  percentage of the remaining compound: 100%
[1]; pH 7.4, 2 Day
  percentage of the remaining compound: 100%
[1]; pH 7.4, 3 Day
  percentage of the remaining compound: 100%
[1]; pH 7.4, 4 Day
  percentage of the remaining compound: 100%
[1]; pH 7.4, 7 Day
  percentage of the remaining compound: 100%
[1]; pH 7.4, 1 hr
  percentage of the remaining compound: 100%
[1]; pH 7.4, 4 hr
  percentage of the remaining compound: 100%
[1]; pH 7.4, day 1
  LP: percentage of linker-payloads remaining: 100%
  P: percentage of budesonide released from the linker-payloads: 0%
[1]; pH 7.4, day 2
  LP: percentage of linker-payloads remaining: 100%
  P: percentage of budesonide released from the linker-payloads: 0%
[1]; pH 7.4, day 7
  LP: percentage of linker-payloads remaining: 100%
  P: percentage of budesonide released from the linker-payloads: 0%
[2]
  Solubility: >1000 µg/mL
[3]
  Solubility: >1000 µg/mL

## CCCC1O[C@@H]2C[C@H]3[C@@H]4CCC5=CC(=O)C=C[C@]5(C)[C@H]4[C@@H](O)C[C@]3(C)[C@]2(C(=O)COC2CCCN2C(=O)CNC(=O)CCOCCOCCOCCOCCNC(=O)CCC(=O)N2Cc3ccccc3-c3c(nnn3CC3OC4OC5C(CO)OC(OC6C(CO)OC(OC7C(CO)OC(OC8C(CO)OC(OC9C(CO)OC(OC3C(O)C4O)C(O)C9O)C(O)C8O)C(O)C7O)C(O)C6O)C(O)C5O)-c3ccccc32)O1 (stereo partly drawn) [Q2L6-PII-9]
[1]; DMSO, 1 Day
  percentage of the remaining compound: 100%
[1]; DMSO, 2 Day
  percentage of the remaining compound: 100%
[1]; DMSO, 3 Day
  percentage of the remaining compound: 100%
[1]; DMSO, 4 Day
  percentage of the remaining compound: 100%
[1]; DMSO, 7 Day
  percentage of the remaining compound: 92%
[1]; DMSO, 4 hr
  percentage of the remaining compound: 100%
[1]; pH 3.0, 1 Day
  percentage of the remaining compound: 0%
[1]; pH 3.0, 4 hr
  percentage of the remaining compound: 8%
[1]; pH 4.0, 1 Day
  percentage of the remaining compound: 25%
[1]; pH 4.0, 2 Day
  percentage of the remaining compound: 8%
[1]; pH 4.0, 3 Day
  percentage of the remaining compound: 2%
[1]; pH 4.0, 4 Day
  percentage of the remaining compound: 0%
[1]; pH 4.0, 4 hr
  percentage of the remaining compound: 71%
[1]; pH 5.0, 1 Day
  percentage of the remaining compound: 92%
[1]; pH 5.0, 2 Day
  percentage of the remaining compound: 86%
[1]; pH 5.0, 3 Day
  percentage of the remaining compound: 82%
[1]; pH 5.0, 4 Day
  percentage of the remaining compound: 69%
[1]; pH 5.0, 7 Day
  percentage of the remaining compound: 66%
[1]; pH 5.0, 4 hr
  percentage of the remaining compound: 100%
[1]; pH 7.4, 1 Day
  percentage of the remaining compound: 100%
[1]; pH 7.4, 2 Day
  percentage of the remaining compound: 100%
[1]; pH 7.4, 3 Day
  percentage of the remaining compound: 100%
[1]; pH 7.4, 4 Day
  percentage of the remaining compound: 100%
[1]; pH 7.4, 7 Day
  percentage of the remaining compound: 100%
[1]; pH 7.4, 1 hr
  percentage of the remaining compound: 100%
[1]; pH 7.4, 4 hr
  percentage of the remaining compound: 100%
[2]
  Solubility: >1000 µg/mL
[3]
  Solubility: >1000 µg/mL

## CCCC1O[C@@H]2C[C@H]3[C@@H]4CCC5=CC(=O)C=C[C@]5(C)[C@H]4[C@@H](O)C[C@]3(C)[C@]2(C(=O)COCNC(=O)CNC(=O)CCC(=O)N2Cc3ccccc3-c3c(nnn3CC3OC4OC5C(CO)OC(OC6C(CO)OC(OC7C(CO)OC(OC8C(CO)OC(OC9C(CO)OC(OC3C(O)C4O)C(O)C9O)C(O)C8O)C(O)C7O)C(O)C6O)C(O)C5O)-c3ccccc32)O1 (stereo partly drawn) [Q2L7-PII-1]
[1]; DMSO, 1 Day
  percentage of the remaining compound: 97%
[1]; DMSO, 2 Day
  percentage of the remaining compound: 97%
[1]; DMSO, 3 Day
  percentage of the remaining compound: 97%
[1]; DMSO, 4 Day
  percentage of the remaining compound: 97%
[1]; DMSO, 7 Day
  percentage of the remaining compound: 97%
[1]; DMSO, 1 hr
  percentage of the remaining compound: 97%
[1]; DMSO, 4 hr
  percentage of the remaining compound: 97%
[1]; pH 3.0, 1 Day
  percentage of the remaining compound: 100%
[1]; pH 3.0, 2 Day
  percentage of the remaining compound: 100%
[1]; pH 3.0, 3 Day
  percentage of the remaining compound: 96%
[1]; pH 3.0, 4 Day
  percentage of the remaining compound: 95%
[1]; pH 3.0, 7 Day
  percentage of the remaining compound: 91%
[1]; pH 3.0, 1 hr
  percentage of the remaining compound: 100%
[1]; pH 3.0, 4 hr
  percentage of the remaining compound: 100%
[1]; pH 4.0, 1 Day
  percentage of the remaining compound: 100%
[1]; pH 4.0, 2 Day
  percentage of the remaining compound: 100%
[1]; pH 4.0, 3 Day
  percentage of the remaining compound: 100%
[1]; pH 4.0, 4 Day
  percentage of the remaining compound: 100%
[1]; pH 4.0, 7 Day
  percentage of the remaining compound: 100%
[1]; pH 4.0, 1 hr
  percentage of the remaining compound: 100%
[1]; pH 4.0, 4 hr
  percentage of the remaining compound: 100%
[1]; pH 5.0, 1 Day
  percentage of the remaining compound: 100%
[1]; pH 5.0, 2 Day
  percentage of the remaining compound: 100%
[1]; pH 5.0, 3 Day
  percentage of the remaining compound: 100%
[1]; pH 5.0, 4 Day
  percentage of the remaining compound: 100%
[1]; pH 5.0, 7 Day
  percentage of the remaining compound: 100%
[1]; pH 5.0, 1 hr
  percentage of the remaining compound: 100%
[1]; pH 5.0, 4 hr
  percentage of the remaining compound: 100%
[1]; pH 7.4, 1 Day
  percentage of the remaining compound: 100%
[1]; pH 7.4, 2 Day
  percentage of the remaining compound: 100%
[1]; pH 7.4, 3 Day
  percentage of the remaining compound: 100%
[1]; pH 7.4, 4 Day
  percentage of the remaining compound: 100%
[1]; pH 7.4, 7 Day
  percentage of the remaining compound: 100%
[1]; pH 7.4, 1 hr
  percentage of the remaining compound: 100%
[1]; pH 7.4, 4 hr
  percentage of the remaining compound: 100%
[2]
  Solubility: >1000 µg/mL
[3]
  Solubility: >1000 µg/mL
